Like-named read-outs stand apart in the source and are kept apart here.
Experiments:
[1] = system: SARS-cov2; conditions: person
[2] = system: Influenza A

Tocilizumab: anti-IL-6 receptor antibody molecule
clinical course ([1]; COPD and diabetes, O2 saturation 87%, Tocilizumab 8 mg/Kg by auto-injector): stabilization | patient's condition ([1]; fever >38.5° C., O2 saturation 92%, Tocilizumab 8 mg/Kg intravenous infusion): condition stabilizes initially | tolerability ([1]; Tocilizumab 8 mg/Kg by auto-injector): tolerates the medication well | renal and neurological status ([2]; person with ARDS and shock, after Tocilizumab 600 mg i.v.): continues to have renal and neurological deterioration

Cc1nc(Nc2ncc(C(=O)Nc3c(C)cccc3Cl)s2)cc(N2CCN(CCO)CC2)n1 [Dasatinib, reference compound]
tolerability ([2]; human, in vivo, po): tolerates the medication well

B1: Sarilumab: anti-IL-6 receptor antibody molecule (antibody, chains of the INN, looked up, V domains shown)
VH: EVQLVESGGGLVQPGRSLRLSCAASRFTFDDYAMHWVRQAPGKGLEWVSGISWNSGRIGYADSVKGRFTISRDNAENSLFLQMNGLRAEDTALYYCAKGRDSFDIWGQGTMVTVSS
VL: DIQMTQSPSSVSASVGDRVTITCRASQGISSWLAWYQQKPGKAPKLLIYGASSLESGVPSRFSGSGSGTDFTLTISSLQPEDFASYYCQQANSFPYTFGQGTKLEIK
tolerability ([1]; COPD and hypertension, O2 saturation 89%, Sarilumab 200 mg subcutaneous, self-administered): tolerates the medication well

From patent US20230130925A1 (priority 2020, published 2023)
